Measurements: ChEMBL document CHEMBL1139578, “(1H-imidazo[4,5-c]pyridin-2-yl)-1,2,5-oxadiazol-3-ylamine derivatives: further optimisation as highly potent and selective MSK-1-inhibitors” (Bioorg Med Chem Lett, 2005)
Each block holds one molecule with its values, some of them ahead of it.

Columns and labels:
[1] = molecular target: T1, Dual specificity tyrosine-phosphorylation-regulated kinase 1A (Homo sapiens, UniProt Q13627); experiment: Inhibitory concentration against selected kinase DYRK1-alpha
[2] = molecular target: T2, Cyclin-dependent kinase 2 (Homo sapiens, UniProt P24941); experiment: Inhibitory concentration against selected kinase CDK2
[3] = molecular target: T3, Rho-associated protein kinase 1 (Homo sapiens, UniProt Q13464); experiment: Inhibitory concentration against selected kinase ROCK1
Target sequence in this assay (Q13464 whole entry): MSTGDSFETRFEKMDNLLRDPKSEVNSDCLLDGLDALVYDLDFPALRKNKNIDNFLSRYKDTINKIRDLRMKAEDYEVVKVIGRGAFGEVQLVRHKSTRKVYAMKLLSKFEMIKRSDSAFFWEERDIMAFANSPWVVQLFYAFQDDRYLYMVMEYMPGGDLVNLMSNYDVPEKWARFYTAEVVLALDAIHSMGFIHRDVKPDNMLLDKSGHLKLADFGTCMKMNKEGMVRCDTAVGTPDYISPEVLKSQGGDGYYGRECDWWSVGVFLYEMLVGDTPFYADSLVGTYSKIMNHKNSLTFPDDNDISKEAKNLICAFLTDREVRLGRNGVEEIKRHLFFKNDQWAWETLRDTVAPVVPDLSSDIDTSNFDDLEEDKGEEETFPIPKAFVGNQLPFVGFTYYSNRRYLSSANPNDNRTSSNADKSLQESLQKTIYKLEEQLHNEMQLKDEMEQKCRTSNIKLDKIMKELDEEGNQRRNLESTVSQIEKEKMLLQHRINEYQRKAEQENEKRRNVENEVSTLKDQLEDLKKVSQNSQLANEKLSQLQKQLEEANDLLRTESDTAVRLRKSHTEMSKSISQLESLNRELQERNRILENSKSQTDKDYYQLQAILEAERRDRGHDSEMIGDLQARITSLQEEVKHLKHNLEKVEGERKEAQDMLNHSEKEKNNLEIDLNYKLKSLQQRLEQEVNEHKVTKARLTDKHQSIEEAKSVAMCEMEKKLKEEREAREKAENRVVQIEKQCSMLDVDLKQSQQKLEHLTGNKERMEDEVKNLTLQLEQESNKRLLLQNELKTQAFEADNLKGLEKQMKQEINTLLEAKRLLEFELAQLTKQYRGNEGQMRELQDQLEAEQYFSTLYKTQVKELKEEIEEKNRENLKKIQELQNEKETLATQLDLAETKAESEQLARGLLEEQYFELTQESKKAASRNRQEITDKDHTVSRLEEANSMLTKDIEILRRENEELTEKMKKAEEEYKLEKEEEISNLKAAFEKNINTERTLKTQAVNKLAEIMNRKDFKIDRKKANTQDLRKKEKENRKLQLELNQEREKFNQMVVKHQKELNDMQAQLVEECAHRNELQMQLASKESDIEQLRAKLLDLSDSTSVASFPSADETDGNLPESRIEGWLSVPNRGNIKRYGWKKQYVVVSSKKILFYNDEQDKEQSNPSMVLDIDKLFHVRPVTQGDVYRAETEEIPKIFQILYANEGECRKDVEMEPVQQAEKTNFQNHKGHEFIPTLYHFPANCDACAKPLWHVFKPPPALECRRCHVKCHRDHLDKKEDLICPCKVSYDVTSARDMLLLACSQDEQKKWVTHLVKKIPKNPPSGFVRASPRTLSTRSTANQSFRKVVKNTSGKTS

[4] = molecular target: T4, Ribosomal protein S6 kinase beta-1 (Homo sapiens, UniProt P23443); experiment: Inhibitory concentration against selected kinase p70S6K
Target sequence in this assay (P23443 whole entry): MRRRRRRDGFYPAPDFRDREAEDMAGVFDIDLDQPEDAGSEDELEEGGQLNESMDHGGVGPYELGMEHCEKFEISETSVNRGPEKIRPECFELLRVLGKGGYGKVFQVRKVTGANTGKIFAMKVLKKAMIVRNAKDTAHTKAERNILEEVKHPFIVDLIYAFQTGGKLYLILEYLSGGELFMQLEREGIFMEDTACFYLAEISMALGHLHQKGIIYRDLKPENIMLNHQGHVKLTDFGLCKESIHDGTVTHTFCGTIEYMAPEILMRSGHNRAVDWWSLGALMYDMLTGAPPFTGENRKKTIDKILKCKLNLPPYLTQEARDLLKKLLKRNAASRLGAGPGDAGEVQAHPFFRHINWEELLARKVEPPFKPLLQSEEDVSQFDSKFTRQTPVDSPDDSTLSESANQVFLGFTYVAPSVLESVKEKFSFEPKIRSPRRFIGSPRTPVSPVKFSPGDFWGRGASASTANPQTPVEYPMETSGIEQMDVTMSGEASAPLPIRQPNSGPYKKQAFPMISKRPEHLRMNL

[5] = molecular target: T1, Dual specificity tyrosine-phosphorylation-regulated kinase 1A; experiment: Percent inhibition against DYRK1a at 10 uM using 100 uM ATP
[6] = molecular target: Ribosomal protein S6 kinase alpha-1 (Homo sapiens) (UniProt Q15418); experiment: Percent inhibition against MAPKAP-K1a at 10 uM using 100 uM ATP
[7] = molecular target: Serine/threonine-protein kinase Sgk1 (Homo sapiens) (UniProt O00141); experiment: Percent inhibition against SGK at 10 uM using 100 uM ATP
[8] = molecular target: 5'-AMP-activated protein kinase catalytic subunit alpha-1 (Homo sapiens) (UniProt Q13131); experiment: Percent inhibition against AMPK at 10 uM using 100 uM ATP
[9] = molecular target: T2, Cyclin-dependent kinase 2; experiment: Percent inhibition against CDK2 at 10 uM using 100 uM ATP
[10] = molecular target: Serine/threonine-protein kinase Chk1 (Homo sapiens) (UniProt O14757); experiment: Percent inhibition against Chk1 at 10 uM using 100 uM ATP
[11] = molecular target: Mitogen-activated protein kinase 8 (Homo sapiens) (UniProt P45983); experiment: Percent inhibition against JNK1 at 10 uM using 100 uM ATP
[12] = molecular target: Dual specificity mitogen-activated protein kinase kinase 1 (Homo sapiens) (UniProt Q02750); experiment: Percent inhibition against MKK1 at 10 uM using 100 uM ATP
[13] = molecular target: T5, Ribosomal protein S6 kinase alpha-5 (Homo sapiens, UniProt O75582); experiment: Percent inhibition against MSK1 at 10 uM using 100 uM ATP
[14] = molecular target: Mitogen-activated protein kinase 11 (Homo sapiens) (UniProt Q15759); experiment: Percent inhibition against p38b at 10 uM using 100 uM ATP
[15] = molecular target: Mitogen-activated protein kinase 13 (Homo sapiens) (UniProt O15264); experiment: Percent inhibition against p38d at 10 uM using 100 uM ATP
[16] = molecular target: Glycogen synthase kinase-3 beta (Homo sapiens) (UniProt P49841); experiment: Percent inhibition against GSK3-beta at 10 uM using 100 uM ATP
[17] = molecular target: Mitogen-activated protein kinase 1 (Homo sapiens) (UniProt P28482); experiment: Percent inhibition against MAPK2 at 10 uM using 100 uM ATP
[18] = molecular target: Mitogen-activated protein kinase 14 (Homo sapiens) (UniProt Q16539); experiment: Percent inhibition against p38-alpha at 10 uM using 100 uM ATP
[19] = molecular target: Protein kinase C alpha type (Homo sapiens) (UniProt P17252); experiment: Percent inhibition against PKCalpha at 10 uM using 100 uM ATP
[20] = molecular target: MAP kinase-activated protein kinase 2 (Homo sapiens) (UniProt P49137); experiment: Percent inhibition against MAPKAP-K2 at 10 uM using 100 uM ATP
[21] = molecular target: Casein kinase II (Homo sapiens) (UniProt P67870+P68400+P19784); experiment: Percent inhibition against CK2 at 10 uM using 100 uM ATP; type: protein-complex assay
[22] = molecular target: cAMP-dependent protein kinase (PKA) (Homo sapiens) (UniProt P22694+P17612+P22612); experiment: Percent inhibition against PKA at 10 uM using 100 uM ATP; type: protein assay
[23] = molecular target: T5, Ribosomal protein S6 kinase alpha-5; experiment: Inhibitory concentration against MSK-1
Target sequence in this assay (O75582 whole entry): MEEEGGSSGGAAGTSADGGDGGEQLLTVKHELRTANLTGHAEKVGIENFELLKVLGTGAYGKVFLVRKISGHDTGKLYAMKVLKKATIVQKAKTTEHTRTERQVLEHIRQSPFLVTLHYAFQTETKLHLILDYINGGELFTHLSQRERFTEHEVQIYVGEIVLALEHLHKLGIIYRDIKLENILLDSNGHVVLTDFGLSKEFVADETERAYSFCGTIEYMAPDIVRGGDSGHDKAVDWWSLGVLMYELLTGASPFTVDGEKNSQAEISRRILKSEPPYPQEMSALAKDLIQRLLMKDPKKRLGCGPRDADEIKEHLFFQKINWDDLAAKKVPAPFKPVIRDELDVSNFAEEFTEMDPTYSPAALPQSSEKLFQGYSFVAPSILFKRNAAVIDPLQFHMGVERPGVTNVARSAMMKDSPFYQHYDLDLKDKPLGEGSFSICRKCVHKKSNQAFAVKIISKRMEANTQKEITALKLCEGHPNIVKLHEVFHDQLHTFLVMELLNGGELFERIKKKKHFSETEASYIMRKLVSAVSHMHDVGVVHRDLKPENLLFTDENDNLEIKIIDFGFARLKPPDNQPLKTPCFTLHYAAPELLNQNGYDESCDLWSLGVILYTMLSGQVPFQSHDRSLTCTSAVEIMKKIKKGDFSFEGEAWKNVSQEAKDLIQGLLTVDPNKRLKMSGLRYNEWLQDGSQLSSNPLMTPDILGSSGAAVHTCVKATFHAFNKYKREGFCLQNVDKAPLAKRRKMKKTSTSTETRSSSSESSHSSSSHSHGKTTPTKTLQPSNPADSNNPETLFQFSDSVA

[24] = molecular target: T3, Rho-associated protein kinase 1; settings: 10 uM
Description: Percent inhibition against ROCK1 at 10 uM using 100 uM ATP

[25] = molecular target: T4, Ribosomal protein S6 kinase beta-1; settings: 10 uM
Description: Percent inhibition against p70S6K at 10 uM using 100 uM ATP

[26] = molecular target: 3-phosphoinositide-dependent protein kinase 1 (Homo sapiens) (UniProt O15530); experiment: Percent inhibition against PDK1 at 10 uM using 100 uM ATP

Sequence of MAP kinase-activated protein kinase 2 (Homo sapiens) (P49137 whole entry, looked up): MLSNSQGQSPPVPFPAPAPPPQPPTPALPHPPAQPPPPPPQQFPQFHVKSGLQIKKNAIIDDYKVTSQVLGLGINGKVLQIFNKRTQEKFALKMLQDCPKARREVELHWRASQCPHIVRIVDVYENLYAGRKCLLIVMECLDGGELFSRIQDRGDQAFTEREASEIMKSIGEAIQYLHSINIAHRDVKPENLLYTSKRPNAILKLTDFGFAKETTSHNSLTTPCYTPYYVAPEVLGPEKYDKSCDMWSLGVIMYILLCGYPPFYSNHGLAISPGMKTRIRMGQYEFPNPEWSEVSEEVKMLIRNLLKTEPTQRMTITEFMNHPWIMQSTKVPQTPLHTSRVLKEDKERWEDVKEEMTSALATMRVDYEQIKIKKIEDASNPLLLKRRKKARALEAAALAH
Sequence of Ribosomal protein S6 kinase alpha-1 (Homo sapiens) (Q15418 whole entry): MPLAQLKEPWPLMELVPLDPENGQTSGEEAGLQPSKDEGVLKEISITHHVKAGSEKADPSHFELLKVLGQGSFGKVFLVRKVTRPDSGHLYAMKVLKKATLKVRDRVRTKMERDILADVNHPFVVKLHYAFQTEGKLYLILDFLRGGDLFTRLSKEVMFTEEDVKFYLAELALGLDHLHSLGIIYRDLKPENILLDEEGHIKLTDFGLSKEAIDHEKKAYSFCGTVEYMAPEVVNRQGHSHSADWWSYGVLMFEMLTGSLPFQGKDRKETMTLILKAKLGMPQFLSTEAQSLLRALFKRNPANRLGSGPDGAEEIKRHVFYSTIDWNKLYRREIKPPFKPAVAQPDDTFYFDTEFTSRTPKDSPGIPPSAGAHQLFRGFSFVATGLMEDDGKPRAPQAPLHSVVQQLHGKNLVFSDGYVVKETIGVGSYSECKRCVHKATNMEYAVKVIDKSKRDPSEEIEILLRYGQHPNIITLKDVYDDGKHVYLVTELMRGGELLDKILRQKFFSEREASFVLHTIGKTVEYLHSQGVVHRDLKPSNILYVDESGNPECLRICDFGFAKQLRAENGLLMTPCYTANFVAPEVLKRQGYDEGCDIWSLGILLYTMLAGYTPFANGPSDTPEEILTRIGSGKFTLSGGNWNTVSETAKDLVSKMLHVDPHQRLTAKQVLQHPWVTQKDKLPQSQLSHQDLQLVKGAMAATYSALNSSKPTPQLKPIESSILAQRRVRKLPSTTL
Sequence of Mitogen-activated protein kinase 14 (Homo sapiens) (Q16539 whole entry): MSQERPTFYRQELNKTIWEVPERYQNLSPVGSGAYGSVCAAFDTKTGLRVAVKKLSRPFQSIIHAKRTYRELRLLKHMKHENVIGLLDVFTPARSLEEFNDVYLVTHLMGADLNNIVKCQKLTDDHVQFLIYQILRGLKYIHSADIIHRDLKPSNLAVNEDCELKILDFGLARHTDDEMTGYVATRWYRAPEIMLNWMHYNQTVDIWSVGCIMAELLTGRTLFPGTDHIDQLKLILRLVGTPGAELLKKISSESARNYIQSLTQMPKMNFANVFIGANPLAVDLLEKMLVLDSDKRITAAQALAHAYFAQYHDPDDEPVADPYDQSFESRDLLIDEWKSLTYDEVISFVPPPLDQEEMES
Sequence of Serine/threonine-protein kinase Chk1 (Homo sapiens) (O14757 whole entry): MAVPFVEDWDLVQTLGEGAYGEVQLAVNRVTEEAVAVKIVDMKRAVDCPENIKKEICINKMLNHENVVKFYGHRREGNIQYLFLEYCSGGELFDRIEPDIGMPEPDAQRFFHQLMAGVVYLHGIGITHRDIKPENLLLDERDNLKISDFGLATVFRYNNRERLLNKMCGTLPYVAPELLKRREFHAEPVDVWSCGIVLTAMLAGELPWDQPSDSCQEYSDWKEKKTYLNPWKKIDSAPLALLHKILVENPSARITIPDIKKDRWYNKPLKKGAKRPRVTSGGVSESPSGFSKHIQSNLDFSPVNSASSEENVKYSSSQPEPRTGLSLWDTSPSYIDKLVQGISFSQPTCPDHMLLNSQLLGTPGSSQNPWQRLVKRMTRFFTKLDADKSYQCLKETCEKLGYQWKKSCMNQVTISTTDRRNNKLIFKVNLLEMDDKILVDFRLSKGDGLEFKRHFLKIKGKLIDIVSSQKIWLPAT
Sequence of Mitogen-activated protein kinase 11 (Homo sapiens) (Q15759 whole entry): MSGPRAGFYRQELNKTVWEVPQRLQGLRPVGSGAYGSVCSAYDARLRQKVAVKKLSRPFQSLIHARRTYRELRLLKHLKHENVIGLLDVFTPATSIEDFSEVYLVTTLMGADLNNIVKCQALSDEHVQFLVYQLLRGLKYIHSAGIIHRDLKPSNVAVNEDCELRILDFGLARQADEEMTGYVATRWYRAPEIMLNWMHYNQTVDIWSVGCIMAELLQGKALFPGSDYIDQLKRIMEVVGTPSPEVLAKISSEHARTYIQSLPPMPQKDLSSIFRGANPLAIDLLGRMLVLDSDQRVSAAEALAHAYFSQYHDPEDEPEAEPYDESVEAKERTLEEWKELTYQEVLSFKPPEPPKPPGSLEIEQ

SMILES: CCc1nccc2c1nc(-c1nonc1N)n2CC
- IC50 [23]: 229 nM

SMILES: CCn1c(-c2nonc2N)nc2c(OC)nccc21
- IC50 [23]: 209 nM

SMILES: CCOc1nccc2c1nc(-c1nonc1N)n2CC
- IC50 [23]: 174 nM

SMILES: CN(C)CCCn1c(-c2nonc2N)nc2cnccc21
- IC50 [23]: 617 nM

SMILES: CCn1c(-c2nonc2N)nc2cncc(CNC3CCNCC3)c21
- IC50 [1]: 4900 nM
- IC50 [2]: > 10000 nM
- IC50 [3]: 100 nM
- IC50 [4]: 270 nM
- IC50 [23]: 0.5 nM

SMILES: Nc1nonc1-c1nc2cnccc2n1C1CC1
- IC50 [23]: 1.5 nM

SMILES: CCn1c(-c2nonc2N)nc2cncc(CN3CCC(N)CC3)c21
- IC50 [23]: 3 nM

SMILES: CCn1c(-c2nonc2N)nc2c(Cl)nccc21
- IC50 [23]: 4 nM

SMILES: NCCCCn1c(-c2nonc2N)nc2cnccc21
- IC50 [23]: 13 nM

SMILES: CCn1c(-c2nonc2N)nc2c(C)nccc21
- IC50 [23]: 8 nM

SMILES: CCn1c(-c2nonc2N)nc2c(N3CCCC3)nccc21
- IC50 [23]: 2240 nM

SMILES: Nc1nonc1-c1nc2cnccc2n1C1CCNCC1
- IC50 [23]: 17 nM

SMILES: NCCCn1c(-c2nonc2N)nc2cnccc21
- IC50 [23]: 22 nM

SMILES: NCc1ccc(-n2c(-c3nonc3N)nc3cnccc32)cc1
- IC50 [23]: 4 nM

Further molecules by falling IC50 [23], results first:

- IC50 [23]: 10000 nM
SMILES: CCn1c(-c2nonc2N)nc2c(Oc3ccccc3)nccc21

- IC50 [23]: 813 nM
SMILES: CCn1c(-c2nonc2N)nc2c(-c3ccccc3)nccc21

- IC50 [23]: 7 nM
SMILES: CCn1c(-c2nonc2N)nc2cncc(CN3CCCCC3)c21

- IC50 [23]: 6 nM
SMILES: Nc1nonc1-c1nc2cnccc2n1-c1ccccc1

- IC50 [1]: 110 nM
- IC50 [2]: 169 nM
- IC50 [3]: 13 nM
- IC50 [4]: 70 nM
- inhibition [5]: 94%
- inhibition [6]: 97%
- inhibition [7]: 67%
- inhibition [8]: 59%
- inhibition [9]: 84%
- inhibition [10]: -6%
- inhibition [11]: 13%
- inhibition [12]: 17%
- inhibition [13]: 96%
- inhibition [14]: 18%
- inhibition [15]: 6%
- inhibition [16]: 90%
- inhibition [17]: 41%
- inhibition [18]: -7%
- inhibition [19]: 56%
- inhibition [20]: 12%
- inhibition [21]: 15%
- inhibition [22]: 75%
- IC50 [23]: 3 nM
- inhibition [24]: 90%
- inhibition [25]: 95%
- inhibition [26]: 32%
SMILES: CCn1c(-c2nonc2N)nc2cnccc21

- IC50 [23]: 3 nM
SMILES: Nc1nonc1-c1nc2cnccc2n1C1CCCCC1

- IC50 [23]: 2.5 nM
SMILES: NCc1cccc(-n2c(-c3nonc3N)nc3cnccc32)c1

- IC50 [23]: 2 nM
SMILES: Nc1nonc1-c1nc2cnccc2n1C1CCCNC1 (racemic)

- IC50 [23]: 1.4 nM
SMILES: CCn1c(-c2nonc2N)nc2cncc(CN3CCNCC3)c21
